Experimental data: patent US8541598B2, “Biodegradable solvents for the chemical industry” (Dublin City University, priority 2007, dated 2013)
“Also recorded” adds a separate entry of the source. Like-named read-outs stand apart in the source and are kept apart here.

Columns and labels:
[1] = tested on: Pseudomonas aeruginosa, Escherichia coli, Klebsiella sp., Salmonella sp., Staphylococcus aureus, Enterococcus sp., Bacillus subtilis; test: Antimicrobial activity / minimum inhibitory concentrations on seven strains of bacteria; type: cell-based; conditions: seven strains of bacteria
Method: (§1) Seven strains of bacteria were used in the assessment of the antimicrobial activity of the ILs claimed: 4 gram negative and three gram positive as shown below.
(§2) A wide concentration range was tested (0-20000 μg/ml). The concentrations screened for antibacterial activity are generally from 2 μg/ml to 1000 μg/ml (Table 6). […] The concentration range screened for the ILs containing ethers was up to 20000 μg/ml. At these high concentrations a lack of antibacterial activity is a significant result.

[2] = as above; type: cell-based; conditions: read-out: MIC values
Method: as §1, §2

[3] = tested on: S. aureus; test: Percentage kill of bacteria by KG20; type: cell-based, Staphylococcus aureus
Excerpt: (§3) A test reference study with 1-methyl-3-decyloxy-carbonyl methylimidazole bromide salt KG20, known to be toxic due to the long alkyl chain, has been completed to provide reference data. This experiment compares, for the same side chain length, the impact of the presence of the oxygen (e.g. KG15) on toxicity.

[4] = tested on: P. aeruginosa; test: Percentage kill of bacteria by KG20; type: cell-based, Pseudomonas aeruginosa
Excerpt: as §3

[5] = tested on: E. coli; test: Percentage kill of bacteria by KG20; type: cell-based, Escherichia coli
Excerpt: as §3

[6] = tested on: B. subtilis; test: Percentage kill of bacteria by KG20; type: cell-based, Bacillus subtilis
Excerpt: as §3

[7] = tested on: Enterococcus sp.; test: Percentage kill of bacteria by KG20; type: cell-based
Excerpt: as §3

[8] = tested on: Klebsiella sp.; test: Percentage kill of bacteria by KG20; type: cell-based
Excerpt: as §3

[9] = tested on: Salmonella sp.; test: Percentage kill of bacteria by KG20; type: cell-based
Excerpt: as §3

[10] = tested on: microbes; conditions: literature (Bodor et al.); cited from earlier work
[11] = seven strains, not split, range tested 0-20000 μg/ml

Compound: CCC(C)OCCOC(=O)Cn1cc[n+](C)c1C.[Br-] (stereo not shown) [KG16, 2,3-dimethyl-1-(2-[2-butoxy]ethoxycarbonylmethyl)imidazolium bromide]
- toxicity / antibacterial activity in words [1]: non-toxic
- MIC [2]: > 20 mg/mL

Compound: COCCOCCOC(=O)Cn1cc[n+](C)c1C.[Br-] [KG18, 2,3-dimethyl-1-(2-[2-methoxyethoxy]ethoxycarbonylmethyl)imidazolium bromide]
- toxicity / antibacterial activity in words [1]: non-toxic
- MIC [2, 11]: > 20 mg/mL

Compound: CCCCCCCCCCOC(=O)Cn1cc[n+](C)c1.[Br-] [KG20, 3-methyl-1-(decanoxycarbonylmethyl)imidazolium bromide]
- Percentage kill ([3]; 3.9 μg/ml): 66%
- Percentage kill ([3]; 7.8 μg/ml): 90%
- Percentage kill ([3]; 15.62 μg/ml): 88.2%
- Percentage kill ([3]; 31.25 μg/ml): 86.4%
- Percentage kill ([3]; 62.5 μg/ml): 90.3%
- Percentage kill ([3]; 125 μg/ml): 80.7%
- Percentage kill ([3]; 250 μg/ml): 93.8%
- Percentage kill ([3]; 500 μg/ml): 96%
- Percentage kill ([4]; 3.9 μg/ml): 0%
- Percentage kill ([4]; 7.8 μg/ml): 0%
- Percentage kill ([4]; 15.62 μg/ml): 0%
- Percentage kill ([4]; 31.25 μg/ml): 6%
- Percentage kill ([4]; 62.5 μg/ml): 0%
- Percentage kill ([4]; 125 μg/ml): 55.5%
- Percentage kill ([4]; 250 μg/ml): 82%
- Percentage kill ([4]; 500 μg/ml): 82%
- Percentage kill ([4]; 1000 μg/ml): 100%
- Percentage kill ([5]; 3.9 μg/ml): 10%
- Percentage kill ([5]; 7.8 μg/ml): 8.5%
- Percentage kill ([5]; 15.62 μg/ml): 17%
- Percentage kill ([5]; 31.25 μg/ml): 28%
- Percentage kill ([5]; 62.5 μg/ml): 37%
- Percentage kill ([5]; 125 μg/ml): 92%
- Percentage kill ([5]; 250 μg/ml): 92%
- Percentage kill ([5]; 500 μg/ml): 82%
- Percentage kill ([5]; 1000 μg/ml): 91%
- toxicity / antibacterial activity in words [1]: toxic to all the different bacteria screened; also recorded: potent antibacterial
- Percentage kill ([6]; 3.9 μg/ml): 0%
- Percentage kill ([6]; 7.8 μg/ml): 0%
- Percentage kill ([6]; 15.62 μg/ml): 0%
- Percentage kill ([6]; 31.25 μg/ml): 0%
- Percentage kill ([6]; 62.5 μg/ml): 0%
- Percentage kill ([6]; 125 μg/ml): 80.2%
- Percentage kill ([6]; 250 μg/ml): 81.5%
- Percentage kill ([6]; 500 μg/ml): 83.2%
- Percentage kill ([6]; 1000 μg/ml): 100%
- Percentage kill ([7]; 3.9 μg/ml): 6.5%
- Percentage kill ([7]; 7.8 μg/ml): 6%
- Percentage kill ([7]; 15.62 μg/ml): 23%
- Percentage kill ([7]; 31.25 μg/ml): 18.7%
- Percentage kill ([7]; 62.5 μg/ml): 48.7%
- Percentage kill ([7]; 125 μg/ml): 49.5%
- Percentage kill ([7]; 250 μg/ml): 83.4%
- Percentage kill ([7]; 500 μg/ml): 84%
- Percentage kill ([7]; 1000 μg/ml): 96.4%
- Percentage kill ([8]; 3.9 μg/ml): 0%
- Percentage kill ([8]; 7.8 μg/ml): 0%
- Percentage kill ([8]; 15.62 μg/ml): 0%
- Percentage kill ([8]; 31.25 μg/ml): 0%
- Percentage kill ([8]; 62.5 μg/ml): 7%
- Percentage kill ([8]; 125 μg/ml): 21%
- Percentage kill ([8]; 250 μg/ml): 64%
- Percentage kill ([8]; 500 μg/ml): 68.2%
- Percentage kill ([8]; 1000 μg/ml): 91.8%
- Percentage kill ([9]; 3.9 μg/ml): 0%
- Percentage kill ([9]; 7.8 μg/ml): 0%
- Percentage kill ([9]; 15.62 μg/ml): 0%
- Percentage kill ([9]; 31.25 μg/ml): 0%
- Percentage kill ([9]; 62.5 μg/ml): 10%
- Percentage kill ([9]; 125 μg/ml): 58%
- Percentage kill ([9]; 250 μg/ml): 73.5%
- Percentage kill ([9]; 500 μg/ml): 88%
- Percentage kill ([9]; 1000 μg/ml): 86%

Compound: CCCCOC(=O)C[n+]1ccn(C)c1 [KG34, 3-methyl-1-(butoxycarbonylmethyl)imidazolium octylsulfate]
- toxicity / antibacterial activity in words [1]: non-toxic
- MIC [2, 11]: 5 mg/mL

Compound: CCCCCOC(=O)C[n+]1ccn(C)c1 [KG35, 3-methyl-1-(pentoxycarbonylmethyl)imidazolium octylsulfate]
- toxicity / antibacterial activity in words [1]: non-toxic
- MIC [2, 11]: > 20 mg/mL

Compound: COCCOC(=O)C[n+]1ccn(C)c1 [KG36, 3-methyl-1-(2-[2-methoxy]ethoxycarbonylmethyl)imidazolium octylsulfate]
- toxicity / antibacterial activity in words [1]: non-toxic
- MIC [2, 11]: > 20 mg/mL

Compound: CCOCCOC(=O)C[n+]1ccn(C)c1 [KG37, 3-methyl-1-(2-[2-ethoxy]ethoxycarbonylmethyl)imidazolium octylsulfate]
- toxicity / antibacterial activity in words [1]: non-toxic
- MIC [2, 11]: > 20 mg/mL

Compound: CCCOCCOC(=O)C[n+]1ccn(C)c1 [KG38, 3-methyl-1-(2-[2-propoxy]ethoxycarbonylmethyl)imidazolium octylsulfate]
- toxicity / antibacterial activity in words [1]: non-toxic
- MIC [2, 11]: > 20 mg/mL

Compound: CCCCOCCOC(=O)C[n+]1ccn(C)c1 [KG39, 3-methyl-1-(2-[2-butoxy]ethoxycarbonylmethyl)imidazolium octylsulfate]
- toxicity / antibacterial activity in words [1]: non-toxic
- MIC [2, 11]: > 20 mg/mL

Compound: COCCOCCOC(=O)C[n+]1ccn(C)c1 [KG40, 3-methyl-1-(2-[2-methoxyethoxy]ethoxycarbonylmethyl)imidazolium octylsulfate]
- toxicity / antibacterial activity in words [1]: non-toxic
- MIC [2, 11]: > 20 mg/mL

Compound: CCOCCOCCOC(=O)C[n+]1ccn(C)c1 [KG41, 3-methyl-1-(2-[2-ethoxyethoxy]ethoxycarbonylmethyl)imidazolium octylsulfate]
- toxicity / antibacterial activity in words [1]: non-toxic
- MIC [2]: 10 mg/mL

Compound: CCCOCCOCCOC(=O)C[n+]1ccn(C)c1 [KG42, 3-methyl-1-(2-[2-propoxyethoxy]ethoxycarbonylmethyl)imidazolium octylsulfate]
- toxicity / antibacterial activity in words [1]: non-toxic
- MIC [2, 11]: > 20 mg/mL

Compound: CCCCOCCOCCOC(=O)C[n+]1ccn(C)c1 [KG43, 3-methyl-1-(2-[2-butoxyethoxy]ethoxycarbonylmethyl)imidazolium octylsulfate]
- toxicity / antibacterial activity in words [1]: non-toxic
- MIC [2, 11]: 10 mg/mL

Compound: CCCCOCCOC(=O)C[n+]1ccn(C)c1C [KG44]
- toxicity / antibacterial activity in words [1]: non-toxic
- MIC [2]: > 20 mg/mL

Compound: COCCOCCOC(=O)C[n+]1ccn(C)c1C [KG45, 2,3-dimethyl-1-(2-[2-methoxyethoxy]ethoxycarbonylmethyl)imidazolium octylsulfate]
- toxicity / antibacterial activity in words [1]: non-toxic
- MIC [2]: 10 mg/mL

Compound: COCCN(CCOC)C(=O)C[n+]1ccn(C)c1 [KG405]
- toxicity / antibacterial activity in words [1]: low toxicity; also recorded: non-toxic
- MIC [2, 11]: > 20 mg/mL

Compound: CCCCCCCCCCCC(=O)OCn1cc[n+](C)c1.[Cl-] [compound 6, 1-[(n-Dodecanoyloxy)methyl]-3-methylimidazolium Chloride]
- antimicrobial activity in words [10]: effective antimicrobial activity at ppm concentrations; also recorded: potent antibacterials
